Measured values reported in US20100143386A1, “FGFR4 Promotes Cancer Cell Resistance in Response to Chemotherapeutic Drugs” (Max-Planck-Gesellschaft zur foerderung der Wissenschaften, …, priority 2006, published 2010).

Legend:
[1] = tested on: Fgfr4 mediated downstream signalling (p-Erk); assay: FGF19 induced MAPK activation (P-ERK immunoblot) in breast cancer cell lines; type: cell-based; conditions: BT-474, MDA-MB-361 and ZR75-1 starved 48 h; compared to not stimulated control cells
Method: Secondary HRP-conjugated antibodies were goat anti-mouse (Sigma, Taufkirchen, Germany) and goat anti-rabbit (Biorad, Munich, Germany).
Cell cultures were washed with PBS and incubated at 4° C. with lysis buffer (50 mM HEPES/NaOH, pH 7.5, 150 mM NaCl, 1 mM EDTA, 10% glycerol and 1% Triton X-100) supplemented with phosphatase and protease inhibitors (10 mM sodium pyrophosphate, 1 mM PMSF, 2 mM sodium orthovanadate, 10 μg/ml aprotinin). Cellular debris was removed by centrifugation. Protein concentration measurements were performed using the Micro-BCA-Protein-Assay Kit from Pierce (Bonn, Germany). For immunoprecipitations, whole-cell lysates were combined with antibody and 30 μl of protein A- or G-sepharose slurry (GE Healthcare). The samples were incubated for 3 h on a rotation wheel at 4° C. The precipitates were washed three times with HNTG buffer (20 mM HEPES/NaOH, pH 7.5, 150 mM NaCl, 10% glycerol, 0.1% Triton X-100 and 10 mM sodium pyrophosphate) suspended in 3×SDS sample buffer, boiled for 3 min and subjected to SDS-PAGE. For Western blot analysis, proteins were transferred to nitrocellulose membranes and incubated with the appropriate antibodies. Signals were developed via an enhanced chemiluminescence detection system (ECL, Perkin Elmer, Wellesley, Mass.). Before reprobing, membranes were stripped with 65 mM Tris/HCl pH 6.8 buffer containing 2% SDS at 50° C. for 1 h.

Bcl-xl expression = conditions: MCF7-FGFR4 cells, 10 μM U0126 for 6 hours and 12 hours
Method: RNA was isolated using the RNeasy Mini Kit (Qiagen, Hilden, Germany) and reversely transcribed into cDNA using the AMV reverse transcriptase (Roche, Mannheim, Germany) and OligodT-Primer (Gibco, Germany). The RNA and cDNA concentration was measured using the NanoDrop ND1000 (PeqLab, Erlangen, Germany) system. […] PCR products were subjected to electrophoresis on a 2% agarose gel and DNA was visualized by ethidium bromide staining.

Molecule | p-Erk-levels on FGF19 stimulation [1] | Bcl-xl expression (semiquantitative PCR) (Bcl-xl expression)
FGF19: specific ligand of Fgfr4, FGF-Ligands purchased from TEBU | increased | 
N#CC(=C(/N)Sc1ccccc1N)/C(C#N)=C(\N)Sc1ccccc1N [U0126] |  | abolished
